In the NIST ThermoML archive (doi:10.1021/acs.jced.8b00509):
Several values for one entry are separate records, joined by “and”; a condition that tells them apart may be missing. Equal values may be shown once.

Columns and labels:
[1] = mn = molality of the nth substance listed, in mol/kg; settings: 100 kPa, Liquid; for viscosity: Capillary tube (Ostwald / Ubbelohde) method; for speed of sound: Frequency=3 MHz, Single path-length method; for mass density: Vibrating tube method
[2] = 100 kPa, Liquid; for viscosity: Capillary tube (Ostwald / Ubbelohde) method

CN(C)C(=N)NC(=N)N.Cl [N,N-dimethylimidodicarbonimidic diamide hydrochloride] + O
[1]
Settings	mass density, m1 = 0.005 [kg/m3]	mass density, m1 = 0.01 [kg/m3]	mass density, m1 = 0.05 [kg/m3]	speed of sound, m1 = 0.005 [m/s]	speed of sound, m1 = 0.01 [m/s]	speed of sound, m1 = 0.05 [m/s]	viscosity, m1 = 0.005 [mPa·s]	viscosity, m1 = 0.01 [mPa·s]	viscosity, m1 = 0.05
293.15 K	998.35	998.57	999	1483	1483.3	1483.7	1.006	1.01	1.014 mPa·s
298.15 K	997.2	997.4	997.91	1497	1497.3	1497.7	0.891	0.893	0.895 mPa·s and 0.8947 mPa·s
303.15 K	995.72	995.99	996.53	1509.4	1509.7	1510	0.799	0.801	0.804 mPa·s
308.15 K	994.19	994.37	994.92	1520	1520.3	1520.7	0.722	0.725	0.728 mPa·s and 0.7276 mPa·s
313.15 K	992.38	992.54	993.1	1529.1	1529.4	1529.7	0.655	0.657	0.659 mPa·s

O [water]
[2]
Settings	viscosity [mPa·s]
293.15 K	1.002
298.15 K	0.89
303.15 K	0.797
308.15 K	0.719
313.15 K	0.652

Settings	speed of sound [m/s]
[2], 313.15 K, Frequency=3 MHz, Single path-length method	1528.8
